Experimental data as given in patent US11773086B2, “Fungal modulators” (TRUSTEES OF BOSTON UNIVERSITY, priority 2020, dated 2023).

Experiments:
[1] = test system: Saccharomyces cerevisiae (BY4741); assay: Azoffluxin dose-response with background fluconazole; format: cell-based; conditions: fluconazole-sensitive laboratory strain BY4741, background FLC 0.5 μg/mL
Description: (§1) FIGS. 2A-2E illustrate the above-described screening of the BU-CMD which identified azoffluxin as a fluconazole (FLC) potentiator against C. auris. […] Growth, as determined by optical density at 600 nm (OD600), is plotted in the presence of each CMD compound alone on the y-axis and in combination with FLC on the x-axis. Dotted lines represent 7-median absolute deviations from the median for each condition. […] FIG. 2B depicts the synergistic interactions. […] Growth was measured by the OD600 and normalized to the no drug control (see color bar). The fractional inhibitory concentration index (FICI) was calculated to determine the chemical interaction, with a value below 0.5 indicating synergy. […] FIG. 2D depicts FLC Etest strips in the presence and absence of 50 μM azoffluxin. […]
(§2) Compound potency was assessed alone by dose response assays or in combination with another compound by dose-response matrixes in 96-well plates, or 384-well, flat-bottom, microtiter plates (Corning) as previously described. […] Growth was quantified by measuring OD600 and corrected for medium background. All strains were assessed in biological duplicate experiments with technical duplicates. […] For dose-response matrixes fractional inhibitory concentration index at 90% growth inhibition (FICI90) was calculated as previously described. […]

[2] = test system: C. albicans CaCi-17 efflux; assay: Nile red accumulation (flow cytometry) in CaCi-17; format: cell-based, Candida albicans; conditions: CaCi-17 and its cdr1Δ/cdr1Δ mutant
Description: FIG. 9A depicts checkerboard assays as described in FIG. 2B and performed with isolates of C. albicans. CaCi-2 and CaCi-17 represent early and late clinical isolates in which FLC resistance evolved over time. Growth was measured at 24 hours using OD600 and normalized to a no drug control well (see color bar). FIG. 9B depicts dose response assays conducted in YPD medium with a C. albicans parental strain, and strains with gain of function mutations in TAC1 as indicated. FLC was tittered in a two-fold dilution on the x-axis in the absence and presence of 50 μM azoffluxin. Growth was measured at 24 hours using OD600 and normalized to a no drug control well (see color bar). […] FIGS. 9D and 9E depict the intracellular concentrations of FLC and azoffluxin measured after treatment (combo treatment at 6.25 μM azoffluxin and 8 μg/mL FLC) for 1 hour by LC-MS. […] Significance was determined by an unpaired student t-test of each combination to the respective compound alone treatment, (*) indicates a p-value<0.05 and (**) indicates a p-value<0.01.
Cellular efflux was determined by measuring Nile red accumulation, as previously described. […] To quantify fluorescence, a CytoFlex Flow Cytometer (Beckman Coulter) was used. […] Each sample was run using the CytExpert Software until ˜20,000 events had been recorded. […]

C. auris B11801 = assay: Kidney fungal burden (CFU) in infected mice; format: in vivo; conditions: azoffluxin 10 mg/Kg SC four-times daily + fluconazole 32 mg/Kg IP twice daily, four days
Description: FIG. 10A depicts mammalian embryonic kidney (293T) cells expressing luciferase used to quantify mammalian cell growth in co-culture. Mammalian cells were seeded in 384-well plates in DMEM medium at 5×10^5 cells/mL overnight. After 24 hours the indicated concentration of compound (⋅ indicates combo treatment concentrations) was added along with 2.5×10^3 cells/mL of C. auris. Co-cultures were incubated for 48 hours at 37° C. and then the luminescence was measured as an output of mammalian cell growth. […] FIG. 10C depicts checkerboard assays performed as described in FIG. 2B with C. auris Clade IV isolate B11801. Relative growth was measured after 24 hours using OD600 and normalized to no-drug control wells (see color bar). The FICI calculated for each checkerboard is shown in the top right of each plot, with values<0.5 indicating synergy. […] Input is the CFU recovered in an aliquot of the fungal suspension use to inoculate mice. […] Fluconazole was administered at 32 mg/Kg IP twice daily and azoffluxin at 10 mg/Kg SC four-times daily. Error bars; SD, n=3 mice/treatment group.

Tolerability = format: in vivo; conditions: 10 mg/Kg BID for 4 days
[3] = test system: HEK293 cancer cells that overexpress the efflux pump MDR1; assay: Doxorubicin cytotoxicity with azoffluxin; format: cell-based; conditions: dose response and single concentration
From the text: Dose response (FIG. 23A) and single concentration (FIG. 23B).

C. glabrata (BG2) = assay: Azoffluxin dose-response with background fluconazole; format: cell-based, Candida glabrata
Description: as §1, §2

C=C(C)C[C@@H](O)COc1cc2c(cc1C1(c3cc4c(cc3OC[C@H](O)CC(=C)C)OCO4)C(=O)Nc3cc(F)ccc31)OCO2 [CMLD012336]
enhancement of fluconazole activity [1]: did not enhance the activity of fluconazole
Nile red accumulation [2]: increase in Nile red accumulation
antifungal activity of fluconazole in mice (kidney CFU) (C. auris B11801): markedly increases the antifungal activity of fluconazole
tolerability (Tolerability): well tolerated
cytotoxicity of doxorubicin [3]: enhances cytotoxicity of doxorubicin
enhancement of fluconazole efficacy (C. glabrata (BG2); C. glabrata, despite increasing Nile red): did not enhance the efficacy of fluconazole
enhancement of fluconazole activity (C. glabrata (BG2); fluconazole-sensitive laboratory strain BG2, background FLC 0.25 μg/mL): did not enhance the activity of fluconazole
